From ChEMBL document CHEMBL1201862, “PubChem BioAssay data set” (2004)
Several values for one entry are separate records, joined by “and”; a condition that tells them apart may be missing. Equal entries are not always repeated. Activity calls are given as the source filed them.

Assays:
Genome polyprotein = Genome polyprotein (Hepatitis C virus, UniProt Q2Q167); assay: HCV core protein dimerization inhibitors, dose response, biochemical, TR-FRET (AID 2159); set-up: species or system Hepacivirus hominis;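 also: blocks dimerization of HCV core protein measured by TR-FRET between tagged core106 pairs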
[1] = inhibitors of Bluetongue virus cytopathic effect, confirmation, arbovirus, BSR cells (AID 1250); assay type: functional;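 also: protection from viral cytopathic effect measured as cell viability by ATP luminescence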
Cytochrome P450 2D6 = Cytochrome P450 2D6 (Homo sapiens, UniProt P10635); assay: qHTS Assay for Inhibitors and Substrates of Cytochrome P450 2D6. [Related pubchem assays: 410 ]; assay type: ADME; conditions: read-out: Potency
Cytochrome P450 2C19 = Cytochrome P450 2C19 (Homo sapiens, UniProt P33261); assay: qHTS Assay for Inhibitors and Substrates of Cytochrome P450 2C19. [Related pubchem assays: 410 ]; assay type: ADME; conditions: read-out: Potency
[2] = target: T1, Aryl hydrocarbon receptor (Homo sapiens, UniProt P35869); assay: Luminescence-based cell-based high throughput dose response assay for activators of the Aryl Hydrocarbon Receptor (AHR). [Related pubchem assays: 2796 (Primary screen (AHR activators in singlicate)), 2845 (Confirmation screen (AHR activators in triplicate)), 434939 (Counterscreen (PXR activators in triplicate)), 2804 (Summary (AHR activators))]; assay type: ADME
T1 sequence (P35869 whole entry): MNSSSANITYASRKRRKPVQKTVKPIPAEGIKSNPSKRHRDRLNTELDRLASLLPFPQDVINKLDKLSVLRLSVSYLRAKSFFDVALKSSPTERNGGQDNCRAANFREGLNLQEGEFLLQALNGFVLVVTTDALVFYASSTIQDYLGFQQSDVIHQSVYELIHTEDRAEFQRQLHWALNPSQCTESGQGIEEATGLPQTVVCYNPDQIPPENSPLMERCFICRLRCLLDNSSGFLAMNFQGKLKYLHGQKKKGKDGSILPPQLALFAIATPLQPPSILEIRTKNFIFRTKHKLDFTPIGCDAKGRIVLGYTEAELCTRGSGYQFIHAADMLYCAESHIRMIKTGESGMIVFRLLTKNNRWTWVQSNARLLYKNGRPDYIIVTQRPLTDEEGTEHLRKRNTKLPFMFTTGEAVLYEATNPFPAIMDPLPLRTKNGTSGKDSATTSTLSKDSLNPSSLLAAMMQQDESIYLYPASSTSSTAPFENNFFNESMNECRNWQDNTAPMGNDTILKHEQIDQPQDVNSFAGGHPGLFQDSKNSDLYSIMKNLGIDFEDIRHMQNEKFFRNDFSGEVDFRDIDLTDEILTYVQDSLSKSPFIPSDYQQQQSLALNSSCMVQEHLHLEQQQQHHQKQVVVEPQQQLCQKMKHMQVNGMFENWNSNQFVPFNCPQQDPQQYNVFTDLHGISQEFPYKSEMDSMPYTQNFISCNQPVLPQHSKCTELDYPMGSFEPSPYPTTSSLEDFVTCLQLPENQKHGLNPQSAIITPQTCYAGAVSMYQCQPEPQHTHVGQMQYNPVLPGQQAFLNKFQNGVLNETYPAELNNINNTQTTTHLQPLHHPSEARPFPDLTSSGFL

[3] = target: Photoreceptor-specific nuclear receptor (Homo sapiens, UniProt Q9Y5X4); assay type: functional;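 also: potency for compounds that break the NR2E3 corepressor complex and count as activators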
[4] = target: Peroxisome proliferator-activated receptor gamma/Nuclear receptor corepressor 2 (Homo sapiens, UniProt P37231+Q9Y618); assay type: functional
[5] = THP-1 cell cytotoxicity, dose response, cytotoxicity control for Vif-APOBEC3G degradation inhibitor project, THP-1 cells (AID 1117359); assay type: functional; conditions: Human immunodeficiency virus 1, THP-1
[6] = target: DNA dC->dU-editing enzyme APOBEC-3A (Homo sapiens, UniProt P31941); assay: Dose Response confirmation of small molecule APOBEC3A DNA Deaminase Inhibitors via a fluorescence-based single-stranded DNA deaminase assay. [Related pubchem assays (depositor defined):AID493011, AID493024]; assay type: functional
[7] = target: DNA dC->dU-editing enzyme APOBEC-3G (Homo sapiens, UniProt Q9HC16); assay type: functional;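 also: Dose-response counterscreen measuring inhibition of APOBEC3G DNA deaminase activity, run while confirming APOBEC3A inhibitors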
Estrogen receptor = target: T2, Estrogen receptor (Homo sapiens, UniProt P03372); assay: potentiators of ERα–SRC-1 coactivator binding, dose response, biochemical, TR-FRET, ERα LBD (AID 737)
T2 sequence (P03372 whole entry): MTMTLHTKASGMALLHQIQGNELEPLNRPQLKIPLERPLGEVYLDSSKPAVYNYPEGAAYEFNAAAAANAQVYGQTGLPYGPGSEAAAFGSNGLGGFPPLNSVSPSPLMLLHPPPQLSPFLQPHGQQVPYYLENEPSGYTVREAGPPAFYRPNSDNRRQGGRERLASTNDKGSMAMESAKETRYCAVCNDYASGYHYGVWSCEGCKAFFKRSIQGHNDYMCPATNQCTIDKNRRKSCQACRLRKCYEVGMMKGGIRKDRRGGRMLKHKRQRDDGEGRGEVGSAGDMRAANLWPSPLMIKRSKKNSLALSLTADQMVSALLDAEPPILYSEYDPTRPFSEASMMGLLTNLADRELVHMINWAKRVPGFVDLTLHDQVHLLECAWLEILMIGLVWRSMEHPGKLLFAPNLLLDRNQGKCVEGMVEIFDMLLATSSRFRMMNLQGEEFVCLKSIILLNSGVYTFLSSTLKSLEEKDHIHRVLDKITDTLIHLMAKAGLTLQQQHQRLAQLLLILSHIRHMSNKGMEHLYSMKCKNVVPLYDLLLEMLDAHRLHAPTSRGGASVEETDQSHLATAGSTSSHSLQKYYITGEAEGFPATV

H4 = assay: Luminescence Cell-Based Dose Response HTS to Identify Activators of 5'UTR Stem-Loop Driven Prion Protein mRNA Translation in H4 Neuroglioblastoma Cells. [Related pubchem assays: 1829 (Project Summary), 1814 (Primary HTS)]; assay type: functional; conditions: Homo sapiens
[8] = Luminescence Cell-Based Dose Response HTS to Identify Activators of Luciferase Translation or Activity in H4 […] Cells. [Related pubchem assays: 1829 (Project Summary), 1814 (Primary HTS)]; assay type: functional
[9] = Luminescence Cell-Based Dose Confirmation HTS to Identify Activators of 5'UTR Stem-Loop Driven Alpha-Synuclein mRNA Translation in H4 Neuroglioblastoma Cells. [Related pubchem assays: 1829 (Project Summary), 1814 (Primary HTS)]; assay type: functional

Chain of Cytochrome P450 2C19 (P33261 whole entry): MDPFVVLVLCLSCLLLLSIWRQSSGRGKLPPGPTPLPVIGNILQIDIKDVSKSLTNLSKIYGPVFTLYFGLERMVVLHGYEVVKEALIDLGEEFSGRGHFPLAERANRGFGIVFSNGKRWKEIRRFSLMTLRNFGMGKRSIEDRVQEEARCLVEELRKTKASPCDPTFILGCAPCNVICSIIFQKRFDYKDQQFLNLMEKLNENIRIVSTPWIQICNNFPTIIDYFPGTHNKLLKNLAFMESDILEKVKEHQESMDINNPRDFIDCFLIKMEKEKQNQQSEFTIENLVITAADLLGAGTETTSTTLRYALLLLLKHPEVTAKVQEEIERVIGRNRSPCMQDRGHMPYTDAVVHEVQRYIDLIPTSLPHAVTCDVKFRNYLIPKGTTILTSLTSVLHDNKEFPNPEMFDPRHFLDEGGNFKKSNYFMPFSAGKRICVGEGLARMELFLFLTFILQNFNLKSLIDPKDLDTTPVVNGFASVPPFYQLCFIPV
Chain of Cytochrome P450 2D6 (P10635 whole entry): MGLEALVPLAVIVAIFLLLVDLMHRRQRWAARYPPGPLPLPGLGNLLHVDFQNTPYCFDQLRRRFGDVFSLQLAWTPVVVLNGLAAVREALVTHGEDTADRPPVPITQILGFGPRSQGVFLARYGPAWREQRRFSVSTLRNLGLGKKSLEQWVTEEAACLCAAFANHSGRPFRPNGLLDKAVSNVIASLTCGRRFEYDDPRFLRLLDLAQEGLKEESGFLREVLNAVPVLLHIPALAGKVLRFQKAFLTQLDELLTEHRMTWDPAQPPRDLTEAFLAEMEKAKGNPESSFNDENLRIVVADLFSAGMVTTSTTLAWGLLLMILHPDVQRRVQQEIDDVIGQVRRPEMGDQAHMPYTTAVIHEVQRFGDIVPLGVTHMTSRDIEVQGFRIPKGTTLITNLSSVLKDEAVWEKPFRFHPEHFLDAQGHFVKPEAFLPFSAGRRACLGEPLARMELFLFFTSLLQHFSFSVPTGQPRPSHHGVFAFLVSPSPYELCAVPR
Chain of DNA dC->dU-editing enzyme APOBEC-3G (Q9HC16 whole entry, the tested form may be a part): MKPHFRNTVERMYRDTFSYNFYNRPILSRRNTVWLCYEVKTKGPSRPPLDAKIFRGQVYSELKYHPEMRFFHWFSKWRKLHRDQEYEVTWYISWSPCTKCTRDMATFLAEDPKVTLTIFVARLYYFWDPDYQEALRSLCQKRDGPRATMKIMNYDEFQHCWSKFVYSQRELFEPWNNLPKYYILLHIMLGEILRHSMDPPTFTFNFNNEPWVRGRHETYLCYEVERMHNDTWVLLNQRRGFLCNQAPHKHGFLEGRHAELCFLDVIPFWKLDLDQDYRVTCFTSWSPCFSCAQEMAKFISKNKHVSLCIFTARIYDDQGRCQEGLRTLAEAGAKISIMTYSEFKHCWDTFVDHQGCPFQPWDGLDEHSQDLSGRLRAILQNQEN
Chain of Photoreceptor-specific nuclear receptor (Q9Y5X4 whole entry): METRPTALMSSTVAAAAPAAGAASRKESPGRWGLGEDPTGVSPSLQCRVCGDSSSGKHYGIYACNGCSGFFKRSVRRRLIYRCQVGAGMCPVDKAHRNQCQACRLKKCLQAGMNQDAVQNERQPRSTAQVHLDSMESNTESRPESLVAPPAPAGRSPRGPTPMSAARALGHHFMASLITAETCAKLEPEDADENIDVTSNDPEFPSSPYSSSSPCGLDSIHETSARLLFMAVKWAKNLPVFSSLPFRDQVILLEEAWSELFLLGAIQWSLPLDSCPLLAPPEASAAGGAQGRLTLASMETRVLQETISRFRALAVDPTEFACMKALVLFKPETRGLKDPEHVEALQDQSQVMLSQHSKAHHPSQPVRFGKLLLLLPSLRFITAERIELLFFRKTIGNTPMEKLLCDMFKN
Chain of Genome polyprotein (Q2Q167 whole entry): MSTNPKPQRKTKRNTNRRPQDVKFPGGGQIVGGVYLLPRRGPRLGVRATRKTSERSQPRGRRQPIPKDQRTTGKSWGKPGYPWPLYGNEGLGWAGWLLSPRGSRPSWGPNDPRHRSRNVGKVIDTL
Chain of Peroxisome proliferator-activated receptor gamma/Nuclear receptor corepressor 2 (P37231 whole entry): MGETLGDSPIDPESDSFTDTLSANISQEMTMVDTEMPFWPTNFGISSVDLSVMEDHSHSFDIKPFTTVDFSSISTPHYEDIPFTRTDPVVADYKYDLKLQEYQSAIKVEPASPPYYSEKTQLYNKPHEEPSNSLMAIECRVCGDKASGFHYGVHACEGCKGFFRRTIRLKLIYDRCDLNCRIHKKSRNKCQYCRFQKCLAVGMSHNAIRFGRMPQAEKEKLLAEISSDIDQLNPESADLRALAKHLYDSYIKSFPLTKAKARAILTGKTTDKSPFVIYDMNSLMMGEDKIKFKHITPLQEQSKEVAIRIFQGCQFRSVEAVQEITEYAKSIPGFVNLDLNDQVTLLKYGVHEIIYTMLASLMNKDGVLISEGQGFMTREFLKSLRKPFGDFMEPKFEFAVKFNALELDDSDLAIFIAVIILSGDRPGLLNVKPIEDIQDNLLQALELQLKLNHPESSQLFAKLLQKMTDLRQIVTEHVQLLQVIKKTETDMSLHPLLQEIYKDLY
Chain of Peroxisome proliferator-activated receptor gamma/Nuclear receptor corepressor 2 (Q9Y618 whole entry): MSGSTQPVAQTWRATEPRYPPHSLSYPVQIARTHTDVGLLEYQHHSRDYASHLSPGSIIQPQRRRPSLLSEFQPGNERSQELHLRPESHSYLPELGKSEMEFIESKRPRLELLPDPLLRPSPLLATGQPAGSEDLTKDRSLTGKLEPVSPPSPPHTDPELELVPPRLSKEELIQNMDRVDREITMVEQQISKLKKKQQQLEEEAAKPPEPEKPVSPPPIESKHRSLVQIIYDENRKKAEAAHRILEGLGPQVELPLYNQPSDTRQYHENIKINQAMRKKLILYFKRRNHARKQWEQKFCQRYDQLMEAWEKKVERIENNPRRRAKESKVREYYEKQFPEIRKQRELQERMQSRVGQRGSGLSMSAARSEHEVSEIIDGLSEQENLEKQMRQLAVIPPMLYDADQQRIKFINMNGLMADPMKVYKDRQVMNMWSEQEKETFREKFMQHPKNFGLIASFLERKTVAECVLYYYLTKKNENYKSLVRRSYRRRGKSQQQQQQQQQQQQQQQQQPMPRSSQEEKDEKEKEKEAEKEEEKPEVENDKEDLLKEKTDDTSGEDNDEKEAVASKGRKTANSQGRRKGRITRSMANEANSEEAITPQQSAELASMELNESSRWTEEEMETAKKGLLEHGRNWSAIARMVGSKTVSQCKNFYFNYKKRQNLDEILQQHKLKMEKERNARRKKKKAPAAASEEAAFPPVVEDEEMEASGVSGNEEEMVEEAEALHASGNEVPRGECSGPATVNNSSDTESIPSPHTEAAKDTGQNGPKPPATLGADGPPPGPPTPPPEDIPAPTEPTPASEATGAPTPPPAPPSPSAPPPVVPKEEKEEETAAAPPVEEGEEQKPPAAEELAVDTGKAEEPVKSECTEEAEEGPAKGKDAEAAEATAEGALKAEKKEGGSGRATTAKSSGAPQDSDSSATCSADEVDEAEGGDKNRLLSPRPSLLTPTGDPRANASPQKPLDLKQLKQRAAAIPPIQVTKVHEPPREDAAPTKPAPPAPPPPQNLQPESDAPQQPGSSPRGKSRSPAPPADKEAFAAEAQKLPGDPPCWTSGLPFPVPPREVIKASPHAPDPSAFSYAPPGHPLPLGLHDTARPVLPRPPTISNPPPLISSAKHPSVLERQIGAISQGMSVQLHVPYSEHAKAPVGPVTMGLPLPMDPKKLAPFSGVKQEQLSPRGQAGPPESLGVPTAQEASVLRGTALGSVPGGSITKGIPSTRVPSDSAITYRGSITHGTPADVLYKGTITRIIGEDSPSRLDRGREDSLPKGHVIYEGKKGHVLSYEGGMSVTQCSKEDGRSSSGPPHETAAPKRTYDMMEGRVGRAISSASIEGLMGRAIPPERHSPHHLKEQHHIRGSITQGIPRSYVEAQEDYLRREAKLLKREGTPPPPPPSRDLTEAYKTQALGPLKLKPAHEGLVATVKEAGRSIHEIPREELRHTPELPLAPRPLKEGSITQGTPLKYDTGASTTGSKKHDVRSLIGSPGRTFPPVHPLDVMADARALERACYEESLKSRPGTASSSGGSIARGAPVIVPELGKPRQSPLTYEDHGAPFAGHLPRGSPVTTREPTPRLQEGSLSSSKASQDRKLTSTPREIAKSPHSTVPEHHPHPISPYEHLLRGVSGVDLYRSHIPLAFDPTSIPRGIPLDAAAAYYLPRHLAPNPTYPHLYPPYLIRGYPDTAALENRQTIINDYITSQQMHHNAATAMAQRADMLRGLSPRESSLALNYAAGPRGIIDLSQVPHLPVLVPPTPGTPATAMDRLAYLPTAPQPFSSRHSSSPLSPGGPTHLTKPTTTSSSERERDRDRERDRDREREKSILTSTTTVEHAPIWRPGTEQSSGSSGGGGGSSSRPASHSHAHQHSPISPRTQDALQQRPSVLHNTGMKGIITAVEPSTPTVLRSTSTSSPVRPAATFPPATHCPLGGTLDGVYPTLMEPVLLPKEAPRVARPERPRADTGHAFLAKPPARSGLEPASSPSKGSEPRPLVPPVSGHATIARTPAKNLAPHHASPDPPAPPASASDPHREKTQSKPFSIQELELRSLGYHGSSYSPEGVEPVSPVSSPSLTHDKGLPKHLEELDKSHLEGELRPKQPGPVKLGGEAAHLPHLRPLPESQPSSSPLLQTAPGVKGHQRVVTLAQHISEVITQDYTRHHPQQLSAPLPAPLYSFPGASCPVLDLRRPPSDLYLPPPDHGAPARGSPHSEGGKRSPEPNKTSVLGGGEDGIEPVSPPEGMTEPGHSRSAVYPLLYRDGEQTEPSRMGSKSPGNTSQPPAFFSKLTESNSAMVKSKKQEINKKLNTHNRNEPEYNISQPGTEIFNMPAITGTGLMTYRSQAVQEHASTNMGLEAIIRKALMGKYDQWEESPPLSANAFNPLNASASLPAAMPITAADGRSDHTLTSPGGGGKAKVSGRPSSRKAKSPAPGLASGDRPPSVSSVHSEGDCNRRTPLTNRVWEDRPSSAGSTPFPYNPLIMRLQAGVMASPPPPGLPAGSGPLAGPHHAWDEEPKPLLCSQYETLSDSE

COc1ccc(-n2c(-c3ccc(Br)cc3)nc(=S)c3c2CCCC3)cc1
IC50 (Genome polyprotein): > 49.8 µM (not active)

O=c1oc(-c2cccs2)nc2scc(-c3cccs3)c12
IC50 [1]: 24.2 µM (active)

CCCCC1CN2C(CCC(C)C2c2ccc(Br)cc2)C(=O)O1 (stereo unspecified)
AC50 (Cytochrome P450 2D6; human): 3.16 µM (inconclusive)
AC50 (Cytochrome P450 2D6): 3.16 µM (inconclusive)
AC50 (Cytochrome P450 2C19): 3.16 µM (inconclusive) and 7.94 µM (inconclusive)

Cc1nnc(N2C(=O)c3cccc4c([N+](=O)[O-])ccc(c34)C2=O)s1
EC50 [2]: 0.733 µM (active)

COCCCN1C(=O)C(O)=C(C(=O)c2ccc(C)o2)C1c1cccc(Br)c1 (stereo unspecified)
IC50 [3]: > 39.8 µM (not active)
IC50 [4]: 11.1 µM (not active)

Cc1cc(Nc2ccc(Br)cc2)n2nc(C)nc2n1
EC50 [2]: 0.117 µM (active)
CC50 [5]: > 40 µM (active)

CCn1c(SCC(=O)Nc2cccc(F)c2)nnc1-c1cc2cc(Br)ccc2o1
IC50 [6]: 2.82 µM (active)
IC50 [7]: 5.3 µM (active)
EC50 (Estrogen receptor): 11.1 µM (active)
EC50 (H4): > 120 µM (not active)
EC50 [8]: 10.8 µM (active)
EC50 [9]: > 120 µM (not active)
